Test results: ChEMBL document CHEMBL1131654 (Bioorg Med Chem Lett, 1998)

Columns and labels:
[1] = biological target: T1, 5-hydroxytryptamine receptor 1B (Homo sapiens, UniProt P28222); conditions: Oryctolagus cuniculus; Saphenous vein
Description: 5-hydroxytryptamine 1B receptor agonist potency determined in rabbit saphenous vein contraction model

[2] = biological target: T1, 5-hydroxytryptamine receptor 1B; experiment: In vitro binding affinity was determined towards cloned human 5-hydroxytryptamine 1B receptor using [3H]5-CT radioligand
[3] = biological target: 5-hydroxytryptamine receptor 1D (Homo sapiens, UniProt P28221); experiment: In vitro binding affinity was determined towards cloned human 5-hydroxytryptamine 1D receptor using [3H]5-CT radioligand
Chain of 5-hydroxytryptamine receptor 1D (P28221 whole entry): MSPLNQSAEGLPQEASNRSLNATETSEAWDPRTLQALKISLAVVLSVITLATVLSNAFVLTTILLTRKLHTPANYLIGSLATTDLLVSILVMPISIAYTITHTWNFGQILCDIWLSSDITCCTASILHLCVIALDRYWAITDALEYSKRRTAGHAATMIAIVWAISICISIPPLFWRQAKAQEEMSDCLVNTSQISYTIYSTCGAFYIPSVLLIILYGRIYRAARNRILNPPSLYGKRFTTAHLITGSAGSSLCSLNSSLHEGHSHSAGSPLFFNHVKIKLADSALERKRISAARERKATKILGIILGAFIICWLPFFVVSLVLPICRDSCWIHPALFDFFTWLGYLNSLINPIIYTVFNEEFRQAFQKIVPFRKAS

[4] = biological target: T1, 5-hydroxytryptamine receptor 1B; experiment: Effective concentration determined by measuring inhibition of forskolin-stimulated c-AMP formation at 5-hydroxytryptamine 1B receptor stably transfected in CHO cell lines; format: functional, cell-based
[5] = biological target: T1, 5-hydroxytryptamine receptor 1B; experiment: 5-HT1B agonist potency was evaluated as effective dose that induced hypothermia in the guinea-pig upon intraperitoneal administration; format: functional, organism-based; conditions: Cavia porcellus; target entry is the homologue from another species
[6] = biological target: T2, 5-hydroxytryptamine receptor 1A (Homo sapiens, UniProt P08908); experiment: In vitro binding affinity was determined towards cloned human 5-hydroxytryptamine 1A receptor using [3H]8-OH-DPAT radioligand
T2 sequence (P08908 whole entry): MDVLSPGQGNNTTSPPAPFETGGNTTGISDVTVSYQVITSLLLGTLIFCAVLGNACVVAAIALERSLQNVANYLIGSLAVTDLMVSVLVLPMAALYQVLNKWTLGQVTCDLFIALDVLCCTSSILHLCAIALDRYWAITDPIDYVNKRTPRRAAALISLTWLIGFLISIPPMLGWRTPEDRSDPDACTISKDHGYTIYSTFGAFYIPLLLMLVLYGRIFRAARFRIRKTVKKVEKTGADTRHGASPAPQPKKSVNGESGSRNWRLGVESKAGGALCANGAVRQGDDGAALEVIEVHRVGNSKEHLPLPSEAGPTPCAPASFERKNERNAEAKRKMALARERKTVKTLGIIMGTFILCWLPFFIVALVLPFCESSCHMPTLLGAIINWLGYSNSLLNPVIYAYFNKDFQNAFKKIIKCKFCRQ

[7] = biological target: T1, 5-hydroxytryptamine receptor 1B; experiment: 5-hydroxytryptamine 1B receptor agonist potency was evaluated as effective dose that induced hypothermia in the guinea-pig upon intraperitoneal administration; format: functional, organism-based; conditions: Cavia porcellus; target entry is the homologue from another species

T1 sequence (P28222 whole entry): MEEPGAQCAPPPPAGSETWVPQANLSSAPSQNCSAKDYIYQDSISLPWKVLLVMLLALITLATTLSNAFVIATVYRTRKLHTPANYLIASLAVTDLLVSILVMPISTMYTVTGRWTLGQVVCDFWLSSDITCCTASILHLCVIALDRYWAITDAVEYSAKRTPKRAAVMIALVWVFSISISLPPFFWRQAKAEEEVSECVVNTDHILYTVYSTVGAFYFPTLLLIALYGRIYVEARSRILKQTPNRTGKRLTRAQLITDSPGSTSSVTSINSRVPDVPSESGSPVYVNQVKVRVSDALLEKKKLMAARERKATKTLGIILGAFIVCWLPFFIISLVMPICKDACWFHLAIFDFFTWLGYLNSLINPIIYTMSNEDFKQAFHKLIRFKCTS

Ki [6]	ED50 [7]	SMILES	pD2 [1]	Ki [2]	Ki [3]	EC50 [4]	ED50 [5]
		CN(C)CCc1c[nH]c2ccc(C[C@H]3COC(=O)N3)cc12 [ZOLMITRIPTAN]	6.2	4.2 nM	0.76 nM	15.7 nM	3.2 mg/kg
17.7 nM	1.3 mg/kg	CN(C)CCc1c[nH]c2ccc(CS(=O)(=O)N(C)Cc3ccc(CN(C)S(=O)(=O)Cc4ccc5[nH]cc(CCN(C)C)c5c4)cc3)cc12	6.6	0.64 nM	0.89 nM	0.58 nM	
